Reference: patent US20220047527A1, “FOOD-AND-DRINK COMPOSITION CONTAINING ASTAXANTHIN” (AstaReal Co., Ltd., priority 2016, published 2022)

Key:
Format in all cases: in vivo
[1] = system: human having a sense of fatigue; assay: POMS (Profile of Mood States) analysis
Procedure: (§1) A placebo-controlled, randomized, double-blind, parallel-group study was employed for ingestion of the test food, and two groups, namely, the control group (placebo group) with ingestion of a capsule not containing astaxanthin and the astaxanthin group with ingestion of a capsule containing 6 mg of astaxanthin (120 mg of Haematococcus algae extract and 10 mg of tocotrienol mixture derived from palm oil) were compared through a double-blind method. For ingestion of the test food, the subjects were instructed to ingest one capsule twice daily (total 12 mg of astaxanthin (240 mg of Haematococcus algae extract and 20 mg of tocotrienol mixture derived from palm oil) in two capsules per day), one after breakfast (or after the first meal of the day if no breakfast was taken) and the other after dinner, with water or lukewarm water within 30 min of eating. The overall duration for ingestion was 8 weeks (12 weeks only for the OSA sleep analysis). The subjects were also instructed to record their test food ingestion, drinking, and exercise in a diary every day, from the first day to the last day of ingestion.
Using the self-administered POMS 2 in Japanese, adult short version (Kanekoshobo, Tokyo, Japan), the subjects answered 35 questions by rating their “current mood” on a 5-point scale (0=not at all; 1=a little; 2=moderately; 3=quite a bit; 4=extremely). Responses to each question were scored according to the POMS scoring system for the seven scales: anger-hostility, confusion-bewilderment, depression-dejection, fatigue-inertia, tension-anxiety, vigor-activity, and friendliness, and the raw scores were converted into TMD scores with a conversion table. The POMS was administered 3 times in total in one day: in the morning of the day of assessment (before load application), after mental load application (calculation load; Uchida-Kraepelin test), and at the end of the day of assessment (after the rest period). To determine transient changes in fatigue, the load-induced change was calculated by subtracting the pre-load value from the values after mental load application and after a rest period therefor. In addition, to determine the effect of test food ingestion alone, ingestion-induced change was calculated by subtracting the pre-load (pre-ingestion) value at week 0 from the pre-load value after 8-week ingestion.

[2] = system: human having a sense of fatigue; assay: Continuous calculation task (Uchida-Kraepelin test), task performance with a mental load; details: after 8-week ingestion, vs control group (FIG. 18)
Procedure: A mental load was applied to each subject by a continuous calculation task with the Uchida-Kraepelin test (Nisseiken Inc., Japan) consisting of two sessions of a 15-min serial addition task (total 30 min), with a 5-min rest period between the first and second sessions. Specifically, the subjects were instructed to sequentially add two adjoining single-digit numbers (combination of 3, 4, 5, 6, 7, 8, and 9), record only the last digit (one's place) of the sum, spend only 1 min on each line, and then quickly move on to the next line of numbers for calculation. This task was continued for 15 min in each session. After the completion of the task, the number of calculations and the number of wrong answers were counted to calculate the percentage of correct answers, and the results for the first session were subtracted from those for the second session to determine change in task performance in the second session, which was used as the task performance with a mental load.

[3] = system: human having a sense of fatigue; assay: VAS (Visual Analog Scale) analysis before/after mental and physical loads; details: for VAS, Clear-headedness (FIG. 5) / VAS, Concentration (FIG. 5) / VAS, Feeling of body heaviness (FIG. 5) / VAS, Frustration (FIG. 5) / VAS, Mood (FIG. 5) / VAS, Motivation (FIG. 5): vs control group
Procedure: as §1
The assessment to the subjects consisted of seven questions: “Sense of Fatigue (“sense of fatigue caused by mental load” or “sense of fatigue caused by mental load and physical load”) (best sensation with no fatigue—worst sensation of being too tired to do anything)”, “Clear-headedness (very clear—very dull)”, “Concentration (able to concentrate very easily—unable to concentrate at all)”, “Motivation (highly motivated—totally unmotivated)”, “Mood (very happy—as depressed as I can be)”, “Frustration (not frustrated at all—very frustrated)”, and “Feeling of body heaviness (feeling my body is very light—feeling my body is very heavy)”. For each question, the subjects were instructed to draw a vertical line by intuition on a 100 mm horizontal line to indicate their condition at the time, with the far left end indicating the best condition and the far right end indicating the worst condition. A VAS score was derived by measuring with a ruler the distance from the far left end to the intersection with the vertical line. VAS analysis was performed five times in total in one day: in the morning of the day of assessment (before load application), after application of a physical load and a mental load, at the end of the assessment visit (after a rest period), after mental load application (calculation load; Uchida-Kraepelin test), and after a rest period after mental load application. To determine transient changes in fatigue, the load-induced change was calculated by subtracting the pre-load value from the values after mental load application, after a rest period after mental load application, after application of both loads, and after a rest period therefor. In addition, to determine the effect of test food ingestion alone, ingestion-induced change was calculated by subtracting the pre-load (pre-ingestion) value at week 0 from the pre-load value after 4-week ingestion and after 8-week ingestion.

[4] = after application of both loads, after 4-week ingestion, vs control group (FIG. 4)
[5] = after application of both loads, after 8-week ingestion, vs control group (FIG. 4)
[6] = after application of both loads
[7] = after the rest period (after both loads), after 4-week ingestion, vs control group (FIG. 4)
[8] = after the rest period (after both loads), after 8-week ingestion, vs control group (FIG. 4)
[9] = after the rest period (after both loads)

CC1=C(/C=C/C(C)=C/C=C/C(C)=C/C=C/C=C(C)/C=C/C=C(C)/C=C/C2=C(C)C(=O)C(O)CC2(C)C)C(C)(C)CC(O)C1=O (stereo not drawn) [astaxanthin, 3,3′-dihydroxy-β,β-carotene-4,4′-dione]
POMS ingestion-induced change, Friendliness (F) ([1]; after 8-week ingestion minus pre-ingestion, vs control group (FIG. 6)): significant high value
POMS load-induced change, Vigor-activity (VA) ([1]; after the rest period, after 8-week ingestion, vs control group (FIG. 6)): marginally significant high value
POMS improvement in Vigor-activity (VA) compared with quercetin/isoquercetin ([1]; vs literature: 250 mg quercetin and 100 mg isoquercetin for 42 to 54 days): larger
POMS improvement in Vigor-activity (VA), AH, FI and CB compared with bonito stock ([1]; vs literature: bonito stock morning and evening over two weeks): larger
change in the number of wrong answers in the second session, continuous calculation task [2]: significant improvement
percentage of correct answers in the second session, continuous calculation task [2]: significant improvement
VAS load-induced change, Clear-headedness [3, 4]: marginally significant improvement and enhancement
VAS load-induced change, Mood [3, 4]: significant improvement
VAS load-induced change, Clear-headedness [3, 5]: marginally significant improvement and enhancement
VAS load-induced change, Concentration [3, 5]: marginally significant improvement and enhancement
VAS load-induced change, Feeling of body heaviness [3, 5]: significant improvement
VAS load-induced change, Mood [3, 5]: marginally significant improvement
VAS load-induced change, Motivation [3, 5]: marginally significant enhancement
VAS, Clear-headedness (FIG. 5) [3, 6]: marginally significant improvement
VAS, Concentration (FIG. 5) [3, 6]: marginally significant improvement
VAS, Feeling of body heaviness (FIG. 5) [3, 6]: significant improvement
VAS, Frustration (FIG. 5) [3, 6]: resolution of frustration
VAS, Mood (FIG. 5) [3, 6]: marginally significant improvement
VAS, Motivation (FIG. 5) [3, 6]: marginally significant improvement
VAS load-induced change, Frustration ([3]; after mental load application, after 8-week ingestion, vs control group (FIG. 4)): significant improvement
VAS, Clear-headedness (FIG. 5) ([3]; after mental load application): improvement
VAS, Concentration (FIG. 5) ([3]; after mental load application): improvement
VAS, Feeling of body heaviness (FIG. 5) ([3]; after mental load application): reduction of feeling of body heaviness
VAS, Frustration (FIG. 5) ([3]; after mental load application): significant improvement
VAS, Mood (FIG. 5) ([3]; after mental load application): improvement
VAS, Motivation (FIG. 5) ([3]; after mental load application): improvement
VAS load-induced change, Clear-headedness [3, 7]: marginally significant improvement and enhancement
VAS load-induced change, Mood [3, 7]: marginally significant improvement
VAS load-induced change, Clear-headedness [3, 8]: marginally significant improvement and enhancement
VAS load-induced change, Concentration [3, 8]: marginally significant improvement and enhancement
VAS load-induced change, Feeling of body heaviness [3, 8]: marginally significant improvement
VAS load-induced change, Frustration [3, 8]: significant improvement
VAS, Clear-headedness (FIG. 5) [3, 9]: marginally significant improvement
VAS, Concentration (FIG. 5) [3, 9]: marginally significant improvement
VAS, Feeling of body heaviness (FIG. 5) [3, 9]: marginally significant improvement
VAS, Frustration (FIG. 5) [3, 9]: significant improvement
VAS, Mood (FIG. 5) [3, 9]: improvement
VAS, Motivation (FIG. 5) [3, 9]: improvement
